# Test results from ChEMBL document CHEMBL1201862, “PubChem BioAssay data set” (2004).
# “And” between values parts separate entries of the source, which are not always exact repeats. Identical values can stand only once. The source made the active and inactive calls.
# Assays:
# Cytochrome P450 2C9 = Cytochrome P450 2C9 (Homo sapiens, UniProt P11712)
# Cytochrome P450 3A4 = Cytochrome P450 3A4 (Homo sapiens, UniProt P08684);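 also: CYP3A4 tested as one member of a cytochrome P450 panel screen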
# H9c2 = experiment: cells; format: functional, cell-based; conditions: Rattus norvegicus, H9c2, Myocardium;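 also: confirmatory concentration-response retest of ultra-high-throughput screening hits for modulation of myocardial damage; cell death induced by hydrogen peroxide oxidative stress; compound pretreatment for 60 min then peroxide exposure for 2 h; potency is for protecting the cells against peroxide damage rather than for killing them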
# Streptococcus = experiment: Group A Streptococcus viability loss, dose response, counter-screen for streptokinase expression inhibitor project, luminescence, BacTiterGlo (AID 1915); format: functional, organism-based;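 also: potency for reduction of bacterial viability or growth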
# [1] = test system: Streptococcus sp. 'group A'; experiment: growth inhibition of control SK(-) GAS strain, dose response, counter-screen for streptokinase expression inhibitor project, luminescence, kanamycin, BacTiterGlo, confirmation (AID 1900); format: functional, organism-based
# Streptokinase A = target: T1, Streptokinase A (Streptococcus pyogenes serotype M1, UniProt P10520); experiment: S. pyogenes streptokinase expression inhibitors, potency, dose response, plasminogen activation absorbance, OD405 (AID 1914); format: functional, Streptococcus pyogenes M1 GAS;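 also: secreted streptokinase activity via plasminogen activation per viability signal from cell pellet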
# T1 sequence (P10520 whole entry): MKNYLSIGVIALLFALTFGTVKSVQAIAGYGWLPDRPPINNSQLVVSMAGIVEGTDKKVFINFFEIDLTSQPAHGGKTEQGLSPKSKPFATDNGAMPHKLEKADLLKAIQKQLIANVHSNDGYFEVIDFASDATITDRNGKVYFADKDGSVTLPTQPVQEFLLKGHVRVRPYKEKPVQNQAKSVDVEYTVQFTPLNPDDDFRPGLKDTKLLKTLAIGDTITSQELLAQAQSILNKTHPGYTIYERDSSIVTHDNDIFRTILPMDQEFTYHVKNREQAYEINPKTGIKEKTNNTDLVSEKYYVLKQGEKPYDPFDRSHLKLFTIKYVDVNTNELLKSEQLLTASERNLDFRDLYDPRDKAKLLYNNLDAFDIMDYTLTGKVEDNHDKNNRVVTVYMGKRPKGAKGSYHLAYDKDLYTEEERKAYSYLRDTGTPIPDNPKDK
# Cytochrome P450 2C19 = Cytochrome P450 2C19 (Homo sapiens, UniProt P33261); experiment: Cytochrome panel assay with activity outcomes. Panel member name: p450-cyp2c19 Compounds with AC50 equal or less than 10 uM are considered active; format: functional; conditions: read-out: AC50
# Cytochrome P450 2C19, sequence (P33261 whole entry): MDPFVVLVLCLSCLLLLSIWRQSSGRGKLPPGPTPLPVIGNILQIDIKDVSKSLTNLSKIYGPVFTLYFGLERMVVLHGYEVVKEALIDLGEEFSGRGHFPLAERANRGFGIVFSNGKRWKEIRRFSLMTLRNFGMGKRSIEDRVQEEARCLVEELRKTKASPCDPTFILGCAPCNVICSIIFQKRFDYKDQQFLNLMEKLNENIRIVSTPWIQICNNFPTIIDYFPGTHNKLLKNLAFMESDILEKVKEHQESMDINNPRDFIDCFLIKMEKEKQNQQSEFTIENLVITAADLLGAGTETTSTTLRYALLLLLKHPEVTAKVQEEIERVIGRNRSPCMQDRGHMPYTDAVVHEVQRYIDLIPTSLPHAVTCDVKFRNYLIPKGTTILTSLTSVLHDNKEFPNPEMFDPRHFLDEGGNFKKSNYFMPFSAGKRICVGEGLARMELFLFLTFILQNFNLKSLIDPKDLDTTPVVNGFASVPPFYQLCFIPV
# [2] = target: T2, Rac GTPase-activating protein 1 (Homo sapiens, UniProt Q9H0H5); experiment: MgcRacGAP GTPase-activating activity inhibitors, confirmation, biochemical, ADP Hunter fluorescence, primary and confirmatory (AID 624330); format: functional
# T2 sequence (Q9H0H5 whole entry): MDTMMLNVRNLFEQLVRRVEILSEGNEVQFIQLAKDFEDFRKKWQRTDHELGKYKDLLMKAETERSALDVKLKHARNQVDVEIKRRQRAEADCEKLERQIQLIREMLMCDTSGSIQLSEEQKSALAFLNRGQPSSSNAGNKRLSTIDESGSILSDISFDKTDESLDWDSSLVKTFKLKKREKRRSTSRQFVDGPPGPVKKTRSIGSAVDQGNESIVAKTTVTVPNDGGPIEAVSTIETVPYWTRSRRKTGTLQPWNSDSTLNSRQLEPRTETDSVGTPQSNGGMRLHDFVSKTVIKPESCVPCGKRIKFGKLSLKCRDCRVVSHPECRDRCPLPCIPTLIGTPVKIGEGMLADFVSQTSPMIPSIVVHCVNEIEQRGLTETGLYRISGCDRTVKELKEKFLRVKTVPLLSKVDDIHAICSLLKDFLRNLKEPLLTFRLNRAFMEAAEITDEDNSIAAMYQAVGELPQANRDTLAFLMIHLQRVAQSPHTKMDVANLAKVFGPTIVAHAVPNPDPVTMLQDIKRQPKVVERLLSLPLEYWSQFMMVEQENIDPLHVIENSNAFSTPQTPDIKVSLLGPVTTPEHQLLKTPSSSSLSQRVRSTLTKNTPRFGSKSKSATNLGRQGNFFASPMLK
# INS1 = experiment: beta cell apoptosis inhibitors, cytokine rescue, dose response, luminescence, retest (AID 449756); format: functional, cell-based; conditions: Rattus norvegicus;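 also: cell death triggered by IL-1 beta plus TNF-alpha plus IFN-gamma mixture; protective hits raise ATP signal compared with cytokine alone wells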
# [3] = target: T3, Zinc finger protein mex-5 (Caenorhabditis elegans, UniProt Q9XUB2); experiment: MEX-5/TCR-2 RNA interaction inhibitors, dose response, biochemical, C. elegans, fluorescence polarization (AID 1960)
# T3 sequence (Q9XUB2 whole entry): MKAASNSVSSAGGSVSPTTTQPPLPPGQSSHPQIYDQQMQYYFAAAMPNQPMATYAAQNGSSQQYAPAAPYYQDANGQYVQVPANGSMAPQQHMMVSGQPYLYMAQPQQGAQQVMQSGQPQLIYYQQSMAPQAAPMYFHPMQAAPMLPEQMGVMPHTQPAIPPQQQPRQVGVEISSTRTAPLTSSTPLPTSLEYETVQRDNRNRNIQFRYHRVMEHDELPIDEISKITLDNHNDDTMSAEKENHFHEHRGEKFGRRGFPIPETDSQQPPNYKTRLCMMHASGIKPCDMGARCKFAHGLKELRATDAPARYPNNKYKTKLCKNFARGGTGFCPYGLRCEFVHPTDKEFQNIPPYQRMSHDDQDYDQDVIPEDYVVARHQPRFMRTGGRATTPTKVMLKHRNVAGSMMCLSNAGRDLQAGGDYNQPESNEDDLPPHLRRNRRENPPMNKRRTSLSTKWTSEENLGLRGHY
# [4] = target: T4, RNA-binding protein pos-1 (Caenorhabditis elegans, UniProt G5EF15); experiment: inhibitors of POS-1/mex-3 RNA binding, dose response, biochemical, fluorescence polarization (AID 1964);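 also: purified POS-1 fused to maltose binding protein made in E. coli; potency of compounds blocking POS-1 binding to fluorescent RNA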
# T4 sequence (G5EF15 whole entry): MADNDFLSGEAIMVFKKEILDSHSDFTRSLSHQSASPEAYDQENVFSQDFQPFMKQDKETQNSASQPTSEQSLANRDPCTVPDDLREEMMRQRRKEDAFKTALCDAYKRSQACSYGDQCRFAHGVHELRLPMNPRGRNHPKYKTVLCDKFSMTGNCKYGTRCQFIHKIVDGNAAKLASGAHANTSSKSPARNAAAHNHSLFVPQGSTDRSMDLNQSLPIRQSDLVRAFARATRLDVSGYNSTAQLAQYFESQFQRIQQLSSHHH
# Cytochrome P450 2C9, sequence (P11712 whole entry): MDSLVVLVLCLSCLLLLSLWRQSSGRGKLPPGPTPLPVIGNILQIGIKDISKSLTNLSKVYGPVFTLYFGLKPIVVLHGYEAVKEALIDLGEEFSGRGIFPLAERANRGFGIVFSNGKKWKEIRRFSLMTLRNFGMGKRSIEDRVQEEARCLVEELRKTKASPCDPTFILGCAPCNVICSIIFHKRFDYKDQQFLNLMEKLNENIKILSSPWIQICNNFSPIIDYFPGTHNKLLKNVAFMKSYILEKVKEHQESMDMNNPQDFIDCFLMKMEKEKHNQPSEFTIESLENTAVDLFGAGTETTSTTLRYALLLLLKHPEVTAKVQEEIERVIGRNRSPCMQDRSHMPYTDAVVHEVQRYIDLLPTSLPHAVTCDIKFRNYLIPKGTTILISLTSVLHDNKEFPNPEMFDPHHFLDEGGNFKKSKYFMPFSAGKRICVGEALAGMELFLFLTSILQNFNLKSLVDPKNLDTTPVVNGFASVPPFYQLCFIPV
# Cytochrome P450 3A4, sequence (P08684 whole entry): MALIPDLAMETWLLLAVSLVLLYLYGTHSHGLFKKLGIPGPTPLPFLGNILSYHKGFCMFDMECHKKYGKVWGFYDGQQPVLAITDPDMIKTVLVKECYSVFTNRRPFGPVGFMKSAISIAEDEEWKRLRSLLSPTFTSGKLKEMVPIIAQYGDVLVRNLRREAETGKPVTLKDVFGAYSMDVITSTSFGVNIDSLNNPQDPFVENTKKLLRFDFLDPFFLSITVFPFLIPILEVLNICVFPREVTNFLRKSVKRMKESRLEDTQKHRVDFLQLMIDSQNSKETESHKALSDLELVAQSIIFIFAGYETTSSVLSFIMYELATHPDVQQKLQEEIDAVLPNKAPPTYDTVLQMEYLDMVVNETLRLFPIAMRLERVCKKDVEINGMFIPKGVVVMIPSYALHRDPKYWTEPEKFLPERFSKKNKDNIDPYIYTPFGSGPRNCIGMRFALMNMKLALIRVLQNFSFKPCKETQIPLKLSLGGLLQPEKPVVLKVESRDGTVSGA
smiles,measurement,setting,value
COC(=O)[C@H]1[C@H](c2ccccc2)C(=O)[C@@]2(O)c3ccccc3O[C@@]12c1ccccc1,AC50,Cytochrome P450 2C9,6.31 µM (inconclusive)
same,AC50,Cytochrome P450 3A4,3.16 µM (inconclusive)
O=C(Nc1cccc(-c2nc3cccnc3s2)c1)c1ccco1,IC50,H9c2,> 79 µM (inactive)
Cc1cc(Oc2cnn(C(C)(C)C)c(=O)c2Cl)cc(C(C)C)c1,EC50,Streptococcus,12.6 µM (active)
same,EC50,[1],6.31 µM (active)
same,EC50,Streptokinase A,9.54 µM (active)
CC(=O)Nc1ccc(S(=O)(=O)NCC2CCC(C(=O)N3CCN(c4ccccn4)CC3)CC2)cc1 (stereo unspecified),AC50,Cytochrome P450 2C9,3.98 µM (inconclusive)
same,AC50,Cytochrome P450 2C19,10 µM (inconclusive)
O=C1c2ccccc2CC1(Cc1ccccc1)Cc1ccccc1,EC50,Streptococcus,> 150 µM (not active)
same,EC50,[1],6.04 µM (active)
same,EC50,Streptokinase A,12.9 µM (active)
C/C(CCN1CCc2nc(-c3ccccc3)c(-c3ccccc3)cc2C1)=N\O[C@@H](C)c1cn([C@H](CO)Cc2ccccc2)nn1,AC50,Cytochrome P450 3A4,3.98 µM (inconclusive) and 3.16 µM (inconclusive)
CCOc1ccc(NC(=O)c2cc3c(=O)n(C)c4ccccc4c3n2C)cc1,IC50,H9c2,> 79 µM (inactive)
Cc1nc2cnc(N(C)C)nc2n(CCc2ccccc2)c1=O,AC50,Cytochrome P450 3A4,31.6 µM (inconclusive)
NCC[Se][Se]CCN,AC50,Cytochrome P450 2C9,0.316 µM (inconclusive)
COc1cc(/C=C/C(=O)OCC(=O)NC(=O)NC(C)C)ccc1O,IC50,[2],47.7 µM (active)
O=c1cnc2cnc(Nc3ccccc3)nc2n1Cc1ccc(F)cc1,AC50,Cytochrome P450 2C9,7.94 µM (inconclusive)
c1ccc2sc(NC3=NCN(C4CCCCCC4)CN3)nc2c1,AC50,Cytochrome P450 2C9,39.8 µM (inconclusive)
same,AC50,Cytochrome P450 3A4,7.94 µM (inconclusive)
CC(C)CC(=O)Nc1ccc2c(c1)oc1ccccc12,AC50,Cytochrome P450 2C9,8.91 µM (inconclusive)
same,AC50,Cytochrome P450 2C19,2.82 µM (inconclusive)
CCCn1nc(C(=O)OCC(=O)c2c(N)n(C)c(=O)n(C)c2=O)c2ccccc2c1=O,IC50,H9c2,17.1 µM (active)
CCOC(=O)c1c(NC(C)=O)sc2c(OC)cccc12,AC50,Cytochrome P450 2C9,5.01 µM (inconclusive)
COc1ccc(CC(=O)N(Cc2ccccc2)c2ccccc2)cc1S(=O)(=O)N1CCOCC1,IC50,H9c2,70.9 µM (inactive)
COc1cc(OC)c(Cl)cc1N,IC50,[2],35.9 µM (active)
CC(C)CN1CC[C@@]2(CCCN(S(=O)(=O)c3ccccc3)C2)C1,AC50,Cytochrome P450 3A4,5.01 µM (inconclusive)
CCCCn1cc[n+](C2=C([N-]S(=O)(=O)c3ccc(Cl)cc3)C(=O)c3ccccc3C2=O)c1,AC50,INS1,4.18 µM (active)
COc1cccc(OCC(O)CN2CCN(C)CC2)c1 (stereo unspecified),IC50,[2],74.6 µM (active)
OC(CNC1CCCCC1)COCCOc1ccc(Br)cc1 (stereo unspecified),AC50,INS1,61.9 µM (active)
O=C(CCc1nc(O)c2ccccc2n1)OCCOc1ccc(Cl)cc1,IC50,H9c2,> 79 µM (inactive)
Fc1ccc(CNCCc2ccccc2)cc1,IC50,[2],249 µM (active)
O=C(OCC(=O)c1cccs1)c1cccc(C(=O)OCC(=O)c2cccs2)n1,AC50,Cytochrome P450 3A4,35.5 µM (inconclusive)
CCc1cc[n+](C2=Nc3ccccc3[N-]C2=C(C#N)C#N)cc1,AC50,Cytochrome P450 2C9,14.1 µM (inconclusive)
same,AC50,Cytochrome P450 3A4,15.8 µM (inconclusive)
same,AC50,Cytochrome P450 2C19,25.1 µM (inconclusive)
O=C(CN1CCN(S(=O)(=O)c2cc(Cl)ccc2Cl)CC1)c1ccc(O)c(O)c1,IC50,H9c2,> 79 µM (inactive)
FC(F)(F)c1ccccc1-c1ccc2ncnc(N3CCOCC3)c2c1,AC50,Cytochrome P450 3A4,5.01 µM (inconclusive)
CC1Cc2ccccc2N1C(=O)Cn1cc([N+](=O)[O-])cn1 (stereo unspecified),AC50,Cytochrome P450 2C9,39.8 µM (inconclusive)
same,AC50,Cytochrome P450 2C19,11.2 µM (inconclusive)
Cc1cc(-c2ccccc2)nc(O)c1S(=O)(=O)c1ccc(Cl)cc1,AC50,Cytochrome P450 2C9,3.55 µM (inconclusive)
same,AC50,Cytochrome P450 2C19,5.62 µM (inconclusive)
CCc1nnc(NC(=O)c2ccc(S(=O)(=O)N(C)c3ccccc3)cc2)o1,EC50,Streptococcus,8.72 µM (active)
same,EC50,[1],7.35 µM (active)
same,EC50,Streptokinase A,> 150 µM (not active)
COc1ccc2nc(O)c(CNc3ccc(C)c(C)c3)cc2c1,IC50,H9c2,> 79 µM (inactive)
Cc1cccc(C)c1OC(=O)C(c1ccccc1)c1ccccc1,EC50,Streptococcus,> 150 µM (not active)
same,EC50,[1],9.04 µM (active)
same,EC50,Streptokinase A,17 µM (active)
CCOC(=O)c1cc(-c2nnc(-c3cc(OC)c(OC)c(OC)c3)o2)c(C)nc1C,IC50,H9c2,> 79 µM (inactive)
O=C(Cc1ccc(Br)cc1)OCC(=O)c1ccc2c(c1)OCCO2,AC50,Cytochrome P450 2C9,7.94 µM (inconclusive)
CCn1nc(CC(C)C)cc1C(=O)N1CCCC(Nc2ccc(OC)cc2)C1 (stereo unspecified),IC50,[2],121 µM (active)
COC(=O)c1c(NC(=O)c2ccn(C)n2)sc2c1CCC2,EC50,Streptococcus,> 150 µM (not active)
same,EC50,[1],> 150 µM (not active)
same,EC50,Streptokinase A,> 150 µM (not active)
COc1ccc(-c2nc3cnc(N4CCN(C)CC4)nc3n(CCC#N)c2=O)cc1,AC50,Cytochrome P450 3A4,39.8 µM (inconclusive)
CCOC(=O)Cc1cc(O)n2ncc(-c3cccc(Br)c3)c2n1,EC50,Streptococcus,18 µM (active)
same,EC50,[1],2.14 µM (active)
same,EC50,Streptokinase A,> 150 µM (not active)
COCCn1c(=O)cnc2cnc(OCc3ccccc3)nc21,AC50,Cytochrome P450 3A4,20 µM (inconclusive)
COC(=O)c1ccc(OCC(=O)Nc2ccccc2C(=O)NC2CC2)cc1,IC50,H9c2,> 79 µM (inactive)
CC(=O)c1cccc(NC(=O)C(C)OC(=O)CCc2nc(O)c3ccccc3n2)c1 (stereo unspecified),IC50,H9c2,15.7 µM (active)
Cc1cccc(N2C(S)=NC(=Nc3c(C)cccc3C)C23CCOC(C)(C)C3)c1 (stereo unspecified),AC50,INS1,3.8 µM (active)
O=C(CN1C(=O)C2CC=CCC2C1=O)Nc1nc(-c2ccc(F)cc2)cs1 (stereo unspecified),IC50,H9c2,> 79 µM (inactive)
C=C[C@H](CC(C)C)N(Cc1ccccc1)S(=O)(=O)N(Cc1ccccc1)[C@@H](C=C)CC(C)C,AC50,INS1,5.4 µM (active)
CC(C)=NNc1cnnc2ccc([N+](=O)[O-])cc12,IC50,H9c2,8.8 µM (active)
COC(=O)c1[nH]c2cc(OC)c(OC)cc2c1/C=N/Nc1ccccc1,EC50,[3],20.3 µM (inconclusive)
same,EC50,[4],20 µM (active)
same,IC50,H9c2,> 79 µM (inactive)
C/C(=N/NC(=O)c1cccs1)c1cccc(NC(=O)C2CC2)c1,IC50,H9c2,> 79 µM (inactive)
Clc1nc2sccn2c1/C=N/n1cnc2ccccc21,IC50,H9c2,> 79 µM (inactive)
C/C(=N\Nc1nc2ccc(Cl)cc2o1)c1ccccc1,EC50,Streptococcus,> 150 µM (not active)
same,EC50,[1],6.79 µM (active)
same,EC50,Streptokinase A,> 150 µM (not active)
N[C@@H](C(=O)O)[C@H](CC(=O)O)c1ccc(Cl)cc1,AC50,Cytochrome P450 2C9,39.8 µM (inconclusive)
same,AC50,Cytochrome P450 2C19,25.1 µM (inconclusive)
CN(C)c1ccccc1CN1CCCN(Cc2ccccc2N(C)C)C1c1ccncc1,AC50,Cytochrome P450 3A4,3.16 µM (inconclusive)
